Molecular target: T1, human V1a receptor (Homo sapiens, UniProt P37288)
T1 construct: expressed in transfected cells; host or cells: CHO K1 (ATCC), also stably transfected with a modified aequorin
Assay: Cellular in vitro assay for vasopressin receptor activity, V1a receptor cell line (photoprotein luminescence)
Assay type: cell-based
Conditions: Table 1A; compounds of the invention; selectivity ratio
Experimental: B-1. Cellular In Vitro Assay for Determining Vasopressin Receptor Activity
The identification of agonists and antagonists of the V1a and V2 vasopressin receptors from humans, rats and dogs as well as the quantification of the activity of the compounds of the invention is carried out using recombinant cell lines. These cell lines originally derive from a hamster's ovary epithelial cell (Chinese Hamster Ovary, CHO K1, ATCC: American Type Culture Collection, Manassas, Va. 20108, USA). The test cell lines constitutively express the human, rat or dog V1a or V2 receptors. In case of the Gαq-coupled V1a receptors, cells are also stably transfected with a modified form of the calcium-sensitive photoproteins aequorin (human and rat V1a) or obelin (dog V1a), which, after reconstitution with the cofactor coelenterazine, emit light when there are increases in free calcium concentrations [Rizzuto R, Simpson A W, Brini M, Pozzan T, Nature, 358, 325-327 (1992); Illarionov B A, Bondar V S, Illarionova V A, Vysotski E S, Gene, 153 (2), 273-274 (1995)]. The resulting vasopressin receptor cells react to stimulation of the recombinantly expressed V1a receptors by intracellular release of calcium ions, which can be quantified by the resulting photoprotein luminescence. The Gs-coupled V2 receptors are stably transfected into cell lines expressing the gene for firefly luciferase under control of a CRE-responsible promoter. Activation of V2 receptors induces the activation of the CRE-responsive promoter via cAMP increase, thereby inducing the expression of firefly luciferase. The light emitted by photoproteins of V1a cell lines as well as the light emitted by firefly luciferase of V2 cell lines corresponds to the activation or inhibition of the respective vasopressin receptor. The bioluminescence of the cell lines is detected using a suitable luminometer [Milligan G, Marshall F, Rees S, Trends in Pharmacological Sciences, 17, 235-237 (1996)].
Vasopressin V1a Receptor Cell Lines:
On the day before the assay, the cells are plated out in culture medium (DMEM/F12, 2% FCS, 2 mM glutamine, 10 mM HEPES, 5 μg/ml coelenterazine) in 384-well microtiter plates and kept in a cell incubator (96% humidity, 5% v/v CO2, 37° C.). On the day of the assay, test compounds in various concentrations are placed for 10 minutes in the wells of the microtiter plate before the agonist [Arg^8]-vasopressin at EC50 concentration is added. The resulting light signal is measured immediately in a luminometer.
Table 1A below lists individual IC50 values for the compounds of the invention (including racemic mixtures as well as separated enantiomers) that were obtained from cell lines transfected with the human V1a or V2 receptor: […]

T1 sequence (P37288 whole entry): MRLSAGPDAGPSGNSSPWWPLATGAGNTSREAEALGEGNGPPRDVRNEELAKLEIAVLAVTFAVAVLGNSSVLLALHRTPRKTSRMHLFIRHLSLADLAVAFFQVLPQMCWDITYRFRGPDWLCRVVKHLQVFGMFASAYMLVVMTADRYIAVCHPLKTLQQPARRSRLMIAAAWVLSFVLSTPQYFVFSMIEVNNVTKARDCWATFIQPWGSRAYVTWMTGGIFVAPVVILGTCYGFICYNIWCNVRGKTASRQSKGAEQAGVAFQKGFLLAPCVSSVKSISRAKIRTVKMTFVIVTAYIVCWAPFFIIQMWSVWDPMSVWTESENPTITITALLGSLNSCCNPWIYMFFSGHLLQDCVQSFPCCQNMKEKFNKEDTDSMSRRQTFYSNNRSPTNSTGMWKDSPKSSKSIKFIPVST

| SMILES | ratio IC50 hV2/hV1a |
| --- | --- |
| NC(=O)c1nc(Cn2nc(-c3ccc(Cl)cc3)n(C[C@H](O)C(F)(F)F)c2=O)nn1-c1ncccc1Cl [Example 1, 3-({3-(4-Chlorophenyl)-5-oxo-4-[(2S)-3,3,3-trifluoro-2-hydroxypropyl]-4,5-dihydro-1H-1,2,4-triazol-1-yl}methyl)-1-(3-chloropyridin-2-yl)-1H-1,2,4-triazole-5-carboxamide] | 38.2 |
| NC(=O)c1nc(Cn2nc(-c3ccc(Cl)cc3)n(C[C@H](O)C(F)(F)F)c2=O)nn1-c1ncccc1C(F)(F)F [Example 2, 3-({3-(4-Chlorophenyl)-5-oxo-4-[(2S)-3,3,3-trifluoro-2-hydroxypropyl]-4,5-dihydro-1H-1,2,4-triazol-1-yl}methyl)-1-[3-(trifluoromethyl)pyridin-2-yl]-1H-1,2,4-triazole-5-carboxamide] | 141.0 |
| NC(=O)c1nc(Cn2nc(-c3ccc(Cl)cc3)n(C[C@H](O)C(F)(F)F)c2=O)nn1-c1ncccc1OC(F)(F)F [Example 3, 3-({3-(4-Chlorophenyl)-5-oxo-4-[(2S)-3,3,3-trifluoro-2-hydroxypropyl]-4,5-dihydro-1H-1,2,4-triazol-1-yl}methyl)-1-[3-(trifluoromethoxy)pyridin-2-yl]-1H-1,2,4-triazole-5-carboxamide] | 54.7 |
| NC(=O)c1nc(Cn2nc(-c3ccc(Cl)cc3)n(C[C@H](O)C(F)(F)F)c2=O)nn1-c1ncccc1Br [Example 4, 1-(3-Bromopyridin-2-yl)-3-({3-(4-chlorophenyl)-5-oxo-4-[(2S)-3,3,3-trifluoro-2-hydroxypropyl]-4,5-dihydro-1H-1,2,4-triazol-1-yl}methyl)-1H-1,2,4-triazole-5-carboxamide] | 72.6 |
| CCOC(=O)c1cccnc1-n1nc(Cn2nc(-c3ccc(Cl)cc3)n(C[C@H](O)C(F)(F)F)c2=O)nc1C(N)=O [Example 5, Ethyl 2-[5-carbamoyl-3-({3-(4-chlorophenyl)-5-oxo-4-[(2S)-3,3,3-trifluoro-2-hydroxypropyl]-4,5-dihydro-1H-1,2,4-triazol-1-yl}methyl)-1H-1,2,4-triazol-1-yl]nicotinate] | 85.9 |
| NC(=O)c1nc(Cn2nc(-c3ccc(Cl)cc3)n(C[C@H](O)C(F)(F)F)c2=O)nn1-c1cnccc1Cl [Example 6, 3-({3-(4-Chlorophenyl)-5-oxo-4-[(2S)-3,3,3-trifluoro-2-hydroxypropyl]-4,5-dihydro-1H-1,2,4-triazol-1-yl}methyl)-1-(4-chloropyridin-3-yl)-1H-1,2,4-triazole-5-carboxamide] | 43.9 |
| NC(=O)c1nc(Cn2nc(-c3ccc(Cl)cc3)n(C[C@H](O)C(F)(F)F)c2=O)nn1-c1cnccc1C(F)(F)F [Example 7, 3-({3-(4-Chlorophenyl)-5-oxo-4-[(2S)-3,3,3-trifluoro-2-hydroxypropyl]-4,5-dihydro-1H-1,2,4-triazol-1-yl}methyl)-1-[4-(trifluoromethyl)pyridin-3-yl]-1H-1,2,4-triazole-5-carboxamide] | 117.3 |
| CCOC(=O)c1ccncc1-n1nc(Cn2nc(-c3ccc(Cl)cc3)n(C[C@H](O)C(F)(F)F)c2=O)nc1C(N)=O [Example 8, Ethyl 3-[5-carbamoyl-3-({3-(4-chlorophenyl)-5-oxo-4-[(2S)-3,3,3-trifluoro-2-hydroxypropyl]-4,5-dihydro-1H-1,2,4-triazol-1-yl}methyl)-1H-1,2,4-triazol-1-yl]isonicotinate] | 35.0 |
| NC(=O)c1cccnc1-n1nc(Cn2nc(-c3ccc(Cl)cc3)n(C[C@H](O)C(F)(F)F)c2=O)nc1C(N)=O [Example 9, 2-[5-carbamoyl-3-({3-(4-chlorophenyl)-5-oxo-4-[(2S)-3,3,3-trifluoro-2-hydroxypropyl]-4,5-dihydro-1H-1,2,4-triazol-1-yl}methyl)-1H-1,2,4-triazol-1-yl]nicotinamide] | 30.0 |
